According to patent US4017540A, “Method of use, composition, and compounds” (The Upjohn Company, priority 1972, dated 1977):
Where “and” joins values, the source holds several entries; their conditions need not be identical. Identical values can stand only once. Entries after “also recorded” stand apart in the source; their conditions may differ.

Key:
anorexigenic activity = settings: in vivo
parasitic worms = assay: anthelmintic activity (general; sheep); settings: in vivo
helminths [1] = assay: preliminary test with worm infested lambs, helminths overall; format: in vivo; settings: one lamb
Description: (§1) A preliminary test with lambs was effected by maintaining worm infested lambs under satisfactory environmental conditions with feed and water available ad libitum. Pretreatment fecal examinations were made in order to characterize and evaluate the parasitism of each animal. The presence of helminth ova was recorded in terms of the number of eggs per gram of feces.
(§2) On the day of treatment, each lamb was weighed and a dosage for it was calculated in terms of milligrams of compound per kilogram of body weight. The calculated dosage of compound was pulverized and packed in a gelatin capsule for oral administration.
In this preliminary test one lamb received 200 mg. p-toluoyl chloride phenylhydrazone per kilogram of body weight - a total dosage of 5.0 g.

Haemonchus [2] = assay: preliminary test with worm infested lambs, Haemonchus; format: in vivo; settings: one lamb, 300 mg./kg. oral
Description: as §1, §2

Ostertagia [3] = assay: preliminary test with worm infested lambs, Ostertagia; format: in vivo; settings: one lamb
Description: as §1, §2

Trichostrongylus [4] = assay: preliminary test with worm infested lambs, Trichostrongylus; format: in vivo; settings: one lamb
Description: as §1, §2

Nematodirus [5] = assay: preliminary test with worm infested lambs, Nematodirus; format: in vivo; settings: one lamb
Description: as §1, §2

Strongyloides [6] = assay: preliminary test with worm infested lambs, Strongyloides; format: in vivo; settings: one lamb
Description: as §1, §2

Oesophagostomum [7] = assay: preliminary test with worm infested lambs, Oesophagostomum; format: in vivo; settings: one lamb, 300 mg./kg. oral
Description: as §1, §2

Trichuris ovis = assay: preliminary test with worm infested lambs, Trichuris; format: in vivo; settings: one lamb, 400 mg./kg. oral
Description: as §1, §2

Haemonchus [8] = assay: Example 31 lamb test, Haemonchus; format: in vivo; settings: for average number of Haemonchus remaining: group average; for total number of Haemonchus remaining: group total; for mean percentage efficacy against Haemonchus: vs unmedicated controls
Description: (§3) At both dosages, the compound p-toluoyl chloride phenylhydrazone was efficacious against Haemonchus, Ostertagia, Nematodirus, Trichostrongylus, Strongyloides, Oesophagostomum, and Cooperia.
(§4) In th comprehesive test with 100 mg./kg. and 200 mg./kg. dosages of p-toluoyl chloride phenylhydrazone, five lambs were used for each dosage level, and five lambs were maintained as unmedicated controls. Daily egg counts in the feces were made before and after treatment. The lambs were killed and examined post-mortem for worms present 11 days after treatment. Helminth populations were recovered, enumerated and identified.
(§5) The mean percentage efficacy against specific helminths in the test lambs was calculated by subtracting the average number of the helminths observed in the treated lambs, postmortem, from the average number observed in the unmedicated controls, post-mortem; dividing the remainder by the latter average number; and multiplying by 100. Accordingly, the means percentage efficacies against the various helminths identified in the test lambs were calculated and found to be as follows: […]

Ostertagia [9] = assay: Example 31 lamb test, Ostertagia; format: in vivo; settings: for average number of Ostertagia remaining: group average; for total number of Ostertagia remaining: group total; for mean percentage efficacy against Ostertagia: vs unmedicated controls
Description: as §3, §4, §5

Trichostrongylus [10] = assay: Example 31 lamb test, Trichostrongylus; format: in vivo; settings: for average number of Trichostrongylus remaining: group average; for total number of Trichostrongylus remaining: group total; for mean percentage efficacy against Trichostrongylus: vs unmedicated controls
Description: as §3, §4, §5

Nematodirus [11] = assay: Example 31 lamb test, Nematodirus; format: in vivo; settings: for average number of Nematodirus remaining: group average; for total number of Nematodirus remaining: group total; for mean percentage efficacy against Nematodirus: vs unmedicated controls
Description: as §3, §4, §5

Strongyloides [12] = assay: Example 31 lamb test, Strongyloides; format: in vivo; settings: for average number of Strongyloides remaining: group average; for total number of Strongyloides remaining: group total; for mean percentage efficacy against Strongyloides: vs unmedicated controls
Description: as §3, §4, §5

Oesophagostomum [13] = assay: Example 31 lamb test, Oesophagostomum; format: in vivo; settings: for average number of Oesophagostomum remaining: group average; for total number of Oesophagostomum remaining: group total; for mean percentage efficacy against Oesophagostomum: vs unmedicated controls
Description: as §3, §4, §5

Bunostomum = assay: Example 31 lamb test, Bunostomum; format: in vivo; settings: 200 mg./kg.
Description: as §3, §4, §5

Cooperia = assay: Example 31 lamb test, Cooperia; format: in vivo; settings: for average number of Cooperia remaining: group average; for total number of Cooperia remaining: group total; for mean percentage efficacy against Cooperia: vs unmedicated controls
Description: as §3, §4, §5

Trichuris = assay: Example 31 lamb test, Trichuris; format: in vivo; settings: for average number of Trichuris remaining: group average; for total number of Trichuris remaining: group total
Description: as §4, §5

tapeworm Moniezia = assay: Example 31 lamb test, tapeworm; format: in vivo
Description: as §3, §4, §5

helminths [14] = assay: Example 31 lamb test, helminths overall; format: in vivo; settings: 100 mg. and 200 mg. per kg
Description: as §3, §4, §5

lambs = settings: in vivo
Description: as §4, with “At both dosages, the compound p-toluoyl chloride phenylhydrazone was efficacious against Haemonchus, Ostertagia, Nematodirus, Trichostrongylus, Strongyloides, Oesophagostomum, and Cooperia. […] In” for “In”

insects and mites = assay: insecticidal and miticidal activity (general); settings: in vivo

ClC(=NNc1c(Cl)cc(Cl)cc1Cl)c1ccc(Cl)cc1 [p-chlorobenzoyl chloride (2,4,6-trichlorophenyl)hydrazone]
anorexigenic activity (anorexigenic activity): anorexigenic activity

Cc1ccc(C(Cl)=NNc2ccccc2)cc1 [p-toluoyl chloride phenylhydrazone]
anthelmintic activity (parasitic worms): effective against worms; also recorded: efficacious anthelmintic agents
effectiveness of the dosage (helminths [1]; 200 mg./kg. oral): somewhat effective
helminth eggs in the feces (helminths [1]; 200 mg./kg. oral): significantly fewer helminth eggs in the feces
numbers of helminths at necropsy (helminths [1]; 200 mg./kg. oral): reduced numbers of helminths at necropsy
helminth egg counts (helminths [1]; 300 mg./kg. oral): reduced significantly (except Trichuris)
worm infestation on necropsy (helminths [1]; 300 mg./kg. oral): low
egg counts (helminths [1]; 400 mg./kg. oral): significantly lowered egg counts
worms at necropsy (helminths [1]; 400 mg./kg. oral): absence of worms
activity against Haemonchus (egg counts and necropsy) (Haemonchus [2]): established activity
activity against Ostertagia (egg counts and necropsy) (Ostertagia [3]; 300 mg./kg. oral): established activity
activity against Ostertagia (Ostertagia [3]; 400 mg./kg. oral): Activity
activity against Trichostrongylus (egg counts and necropsy) (Trichostrongylus [4]; 300 mg./kg. oral): established activity
activity against Trichostrongylus (Trichostrongylus [4]; 400 mg./kg. oral): Activity
activity against Nematodirus (egg counts and necropsy) (Nematodirus [5]; 300 mg./kg. oral): established activity
activity against Nematodirus (Nematodirus [5]; 400 mg./kg. oral): Activity
activity against Strongyloides (egg counts and necropsy) (Strongyloides [6]; 300 mg./kg. oral): established activity
activity against Strongyloides (Strongyloides [6]; 400 mg./kg. oral): Activity
activity against Oesophagostomum (egg counts and necropsy) (Oesophagostomum [7]): established activity
activity against Trichuris ovis (Trichuris ovis): lack of noticeable activity
efficacy against Haemonchus (in words) (Haemonchus [8]; 100 mg. and 200 mg. per kg): efficacious
number of Haemonchus recovered at necropsy, individual lamb (Haemonchus [8]; 100 mg./kg.): 2 and 0
average number of Haemonchus remaining (Haemonchus [8]; 100 mg./kg.): < 1
total number of Haemonchus remaining (Haemonchus [8]; 100 mg./kg.): 2
mean percentage efficacy against Haemonchus (Haemonchus [8]; 100 mg./kg.): 99.9%
number of Haemonchus recovered at necropsy, individual lamb (Haemonchus [8]; 200 mg./kg.): 0 and 1
average number of Haemonchus remaining (Haemonchus [8]; 200 mg./kg.): < 1
total number of Haemonchus remaining (Haemonchus [8]; 200 mg./kg.): 1
mean percentage efficacy against Haemonchus (Haemonchus [8]; 200 mg./kg.): 99.9%
efficacy against Ostertagia (in words) (Ostertagia [9]; 100 mg. and 200 mg. per kg): efficacious
number of Ostertagia recovered at necropsy, individual lamb (Ostertagia [9]; 100 mg./kg.): 0
average number of Ostertagia remaining (Ostertagia [9]; 100 mg./kg.): 0
total number of Ostertagia remaining (Ostertagia [9]; 100 mg./kg.): 0
mean percentage efficacy against Ostertagia (Ostertagia [9]; 100 mg./kg.): 100%
number of Ostertagia recovered at necropsy, individual lamb (Ostertagia [9]; 200 mg./kg.): 0
average number of Ostertagia remaining (Ostertagia [9]; 200 mg./kg.): 0
total number of Ostertagia remaining (Ostertagia [9]; 200 mg./kg.): 0
mean percentage efficacy against Ostertagia (Ostertagia [9]; 200 mg./kg.): 100%
efficacy against Trichostrongylus (in words) (Trichostrongylus [10]; 100 mg. and 200 mg. per kg): efficacious
number of Trichostrongylus recovered at necropsy, individual lamb (Trichostrongylus [10]; 100 mg./kg.): 0 and 15
average number of Trichostrongylus remaining (Trichostrongylus [10]; 100 mg./kg.): 4
total number of Trichostrongylus remaining (Trichostrongylus [10]; 100 mg./kg.): 15
mean percentage efficacy against Trichostrongylus (Trichostrongylus [10]; 100 mg./kg.): 98.7%
number of Trichostrongylus recovered at necropsy, individual lamb (Trichostrongylus [10]; 200 mg./kg.): 0
average number of Trichostrongylus remaining (Trichostrongylus [10]; 200 mg./kg.): 0
total number of Trichostrongylus remaining (Trichostrongylus [10]; 200 mg./kg.): 0
mean percentage efficacy against Trichostrongylus (Trichostrongylus [10]; 200 mg./kg.): 100%
efficacy against Nematodirus (in words) (Nematodirus [11]; 100 mg. and 200 mg. per kg): efficacious
number of Nematodirus recovered at necropsy, individual lamb (Nematodirus [11]; 100 mg./kg.): 0
average number of Nematodirus remaining (Nematodirus [11]; 100 mg./kg.): 0
total number of Nematodirus remaining (Nematodirus [11]; 100 mg./kg.): 0
mean percentage efficacy against Nematodirus (Nematodirus [11]; 100 mg./kg.): 100%
number of Nematodirus recovered at necropsy, individual lamb (Nematodirus [11]; 200 mg./kg.): 0
average number of Nematodirus remaining (Nematodirus [11]; 200 mg./kg.): 0
total number of Nematodirus remaining (Nematodirus [11]; 200 mg./kg.): 0
mean percentage efficacy against Nematodirus (Nematodirus [11]; 200 mg./kg., *= only one lamb infected): 100%
efficacy against Strongyloides (in words) (Strongyloides [12]; 100 mg. and 200 mg. per kg): efficacious
number of Strongyloides recovered at necropsy, individual lamb (Strongyloides [12]; 100 mg./kg.): 2 and 0 and 11
average number of Strongyloides remaining (Strongyloides [12]; 100 mg./kg.): 3
total number of Strongyloides remaining (Strongyloides [12]; 100 mg./kg.): 13
mean percentage efficacy against Strongyloides (Strongyloides [12]; 100 mg./kg.): 97.9%
number of Strongyloides recovered at necropsy, individual lamb (Strongyloides [12]; 200 mg./kg.): 0
average number of Strongyloides remaining (Strongyloides [12]; 200 mg./kg.): 0
total number of Strongyloides remaining (Strongyloides [12]; 200 mg./kg.): 0
mean percentage efficacy against Strongyloides (Strongyloides [12]; 200 mg./kg.): 100%
efficacy against Oesophagostomum (in words) (Oesophagostomum [13]; 100 mg. and 200 mg. per kg): efficacious
number of Oesophagostomum recovered at necropsy, individual lamb (Oesophagostomum [13]; 100 mg./kg.): 0
average number of Oesophagostomum remaining (Oesophagostomum [13]; 100 mg./kg.): 0
total number of Oesophagostomum remaining (Oesophagostomum [13]; 100 mg./kg.): 0
mean percentage efficacy against Oesophagostomum (Oesophagostomum [13]; 100 mg./kg.): 100%
number of Oesophagostomum recovered at necropsy, individual lamb (Oesophagostomum [13]; 200 mg./kg.): 0 and 3
average number of Oesophagostomum remaining (Oesophagostomum [13]; 200 mg./kg.): < 1
total number of Oesophagostomum remaining (Oesophagostomum [13]; 200 mg./kg.): 3
mean percentage efficacy against Oesophagostomum (Oesophagostomum [13]; 200 mg./kg.): 90.6%
number of Bunostomum recovered at necropsy, individual lamb (Bunostomum): 2 and 1
average number of Bunostomum remaining (Bunostomum; group average): 1.5
total number of Bunostomum remaining (Bunostomum; group total): 3
mean percentage efficacy against Bunostomum (Bunostomum; vs unmedicated controls): 97%
efficacy against Cooperia (in words) (Cooperia; 100 mg. and 200 mg. per kg): efficacious
number of Cooperia recovered at necropsy, individual lamb (Cooperia; 100 mg./kg.): 0
average number of Cooperia remaining (Cooperia; 100 mg./kg.): 0
total number of Cooperia remaining (Cooperia; 100 mg./kg.): 0
mean percentage efficacy against Cooperia (Cooperia; 100 mg./kg., *= only one lamb infected): 100%
number of Cooperia recovered at necropsy, individual lamb (Cooperia; 200 mg./kg.): 0
average number of Cooperia remaining (Cooperia; 200 mg./kg.): 0
total number of Cooperia remaining (Cooperia; 200 mg./kg.): 0
mean percentage efficacy against Cooperia (Cooperia; 200 mg./kg.): 100%
number of Trichuris recovered at necropsy, individual lamb (Trichuris; 100 mg./kg.): 31 and 83 and 3 and 37 and 4
average number of Trichuris remaining (Trichuris; 100 mg./kg.): 32
total number of Trichuris remaining (Trichuris; 100 mg./kg.): 158
mean percentage efficacy against Trichuris (Trichuris; 100 mg./kg., vs unmedicated controls): 0%
number of Trichuris recovered at necropsy, individual lamb (Trichuris; 200 mg./kg.): 6 and 64 and 28 and 56
average number of Trichuris remaining (Trichuris; 200 mg./kg.): 39
total number of Trichuris remaining (Trichuris; 200 mg./kg.): 154
activity against the tapeworm Moniezia (tapeworm Moniezia; 100 mg. and 200 mg. per kg): activity against the tapeworm Moniezia was observed
activity against tapeworm (tapeworm Moniezia; 200 mg./kg.): positive
number of tapeworm recovered at necropsy, individual lamb (tapeworm Moniezia; 200 mg./kg.): 0
average number of tapeworm remaining (tapeworm Moniezia; 200 mg./kg., group average): 0
total number of tapeworm remaining (tapeworm Moniezia; 200 mg./kg., group total): 0
overall anthelmintic activity in lambs (helminths [14]): excellent activity
signs of toxicity to the lambs (lambs): absence of signs of toxicity

Fc1c(F)c(F)c(C(Cl)=NNc2ccccc2)c(F)c1F [pentafluorobenzoyl chloride phenylhydrazone]
insecticidal and miticidal activity (insects and mites): outstanding insecticidal and miticidal agent
